For one assay, the system named is DU-145. The assay can be described thus: Inhibition of cell growth by counting cells, DU-145. Type of assay: cell-based, human. The following applies: Homo sapiens, DU-145, 72 h, read-out: IC50 (molar) DU-145. Put shortly:
(§1)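 Growth inhibition by direct cell counting: exponentially growing cells treated 3 days with compound at 37° C; IC50 derived from dose-response of net cells per well.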

The test system of a further assay is A-549. Kind of assay: Inhibition of cell growth by counting cells, A-549. The assay is classed as cell-based, human. The settings on record: Homo sapiens, A549, 72 h, read-out: IC50 (molar) A-549. Put shortly: as §1
For another assay, the system named is MEL-28. Kind of assay: Inhibition of cell growth by counting cells, MEL-28. Type of assay: cell-based, human. The settings on record: Homo sapiens, SK-MEL-28, 72 h, read-out: IC50 (molar) MEL-28. Put shortly: as §1
A further assay concerns HT-29. The assay can be described thus: Inhibition of cell growth by counting cells, HT-29. The assay is classed as cell-based, human. The settings on record: Homo sapiens, HT-29, 72 h, read-out: IC50 (molar) HT-29. The gist of the method:
as §1

The next assay has as its system P-388. The assay can be described thus: Inhibition of cell growth by counting cells, P-388. The assay is classed as cell-based, mouse. The following applies: Mus musculus, P388, 72 h, read-out: IC50 (molar) P-388. Put shortly:
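IC50 is the sample concentration halving growth, taken from dose-response curves of cell counts (Coulter counter, duplicate wells) relative to drug-free cultures. P-388 (DBA/2 mouse lymphoid neoplasm) cells plated at 1×10^4 per well in EMEM with 5% FCS plus test sample.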

Here are results for 21 compounds from US7759345B2, “Antitumoral derivatives of ET-743” (priority 2001, dated 2010).

Where two headings read alike, the source gives them in different places.

As for `COc1cc2c(cc1OC(=O)OC(C)(C)C)CCN[C@]21CS[C@@H]2c3c(OCc4ccccc4)c(C)c4c(c3[C@H](COC1=O)N1C2[C@H]2c3c(cc(C)c(OC)c3O)C[C@@H]([C@@H]1C#N)N2C)OCO4` (stereo partly drawn) [Compound 134], the IC50 in the assay on DU-145, in the assay with A-549, in the assay on MEL-28, in the assay on HT-29 and in the assay with P-388 was 0.544 nM each time.

As to `COc1cc2c(cc1OC(=O)OC(C)(C)C)CCN[C@]21CS[C@@H]2c3c(OCc4ccccc4)c(C)c4c(c3[C@H](COC1=O)N1C2[C@H]2c3c(cc(C)c(OC)c3OCc3ccccc3)C[C@@H]([C@@H]1C#N)N2C)OCO4` (stereo partly drawn) [Compound 135], the 50% inhibitory concentration (IC50) in the assay on DU-145, with A-549, in the assay with MEL-28, in the assay on HT-29 and in the assay on P-388 was 4.96 nM each time.

With `COc1cc2c(cc1O)CCN[C@]21CS[C@@H]2c3c(O)c(C)c4c(c3[C@H](COC1=O)N1C2[C@H]2c3c(cc(C)c(OC)c3O)C[C@@H]([C@@H]1C#N)N2C)OCO4` (stereo partly drawn) [Compound 136], the IC50 in the assay on DU-145 (three days of incubation), in the assay on A-549 (three days of incubation), with MEL-28 (three days of incubation), in the assay on HT-29 (three days of incubation) and with P-388 (three days of incubation) was 0.137 nM in each case.

As to `COc1cc2c(cc1O)CCN[C@]21CS[C@@H]2c3c(OC(=O)/C=C/c4ccccc4)c(C)c4c(c3[C@H](COC1=O)N1C2[C@H]2c3c(cc(C)c(OC)c3O)C[C@@H]([C@@H]1C#N)N2C)OCO4` (stereo partly drawn) [Compound 137], the concentration for half-maximal inhibition (IC50) with DU-145 (three days of incubation), with A-549 (three days of incubation), with MEL-28 (three days of incubation), in the assay on HT-29 (three days of incubation) and with P-388 (three days of incubation) was 0.117 nM throughout.

Turning to `CCCCCCCC(=O)Oc1c(C)c2c(c3c1[C@H]1SC[C@]4(NCCc5cc(O)c(OC)cc54)C(=O)OC[C@@H]3N3C1[C@H]1c4c(cc(C)c(OC)c4O)C[C@@H]([C@@H]3C#N)N1C)OCO2` (stereo partly drawn) [Compound 144], the IC50 in the assay with DU-145 (three days of incubation), in the assay with A-549 (three days of incubation), in the assay on MEL-28 (three days of incubation), in the assay with HT-29 (three days of incubation) and with P-388 (three days of incubation) was 1.17 nM each time.

With `CCCCCCCCCCCCCCCC(=O)Oc1c(C)c2c(c3c1[C@H]1SC[C@]4(NCCc5cc(O)c(OC)cc54)C(=O)OC[C@@H]3N3C1[C@H]1c4c(cc(C)c(OC)c4O)C[C@@H]([C@@H]3C#N)N1C)OCO2` (stereo partly drawn) [Compound 146], the IC50 in the assay with DU-145 (three days of incubation), in the assay on A-549 (three days of incubation), in the assay with MEL-28 (three days of incubation), in the assay on HT-29 (three days of incubation) and with P-388 (three days of incubation) was 103 nM each time.

Take `COc1cc2c(cc1O)CCN[C@]21CS[C@@H]2c3c(OC(=O)C(F)(F)F)c(C)c4c(c3[C@H](COC1=O)N1C2[C@H]2c3c(cc(C)c(OC)c3O)C[C@@H]([C@@H]1C#N)N2C)OCO4` (stereo partly drawn) [Compound 159]: the IC50 in the assay with DU-145 (three days of incubation), with A-549 (three days of incubation), in the assay on MEL-28 (three days of incubation), in the assay on HT-29 (three days of incubation) and in the assay on P-388 (three days of incubation) was 1.37 nM in each case.

Turning to `CCCCCCCC(=O)Oc1c(C)c2c(c3c1[C@H]1SC[C@]4(NCCc5cc(O)c(OC)cc54)C(=O)OC[C@@H]3N3C1[C@H]1c4c(cc(C)c(OC)c4O)C[C@@H]([C@@H]3O)N1C)OCO2` (stereo partly drawn) [Compound 168], the IC50 with DU-145 (three days of incubation), in the assay with A-549 (three days of incubation), in the assay with MEL-28 (three days of incubation), in the assay with HT-29 (three days of incubation) and in the assay on P-388 (three days of incubation) was 0.591 nM in each case.

In the case of `COc1cc2c(cc1OC(C)=O)CCN[C@]21CS[C@@H]2c3c(OC(C)=O)c(C)c4c(c3[C@H](COC1=O)N1C2[C@H]2c3c(cc(C)c(OC)c3O)C[C@@H]([C@@H]1C#N)N2C(=O)OC(C)(C)C)OCO4` (stereo partly drawn) [Compound 191], the IC50 in the assay with DU-145 (three days of incubation), in the assay with A-549 (three days of incubation), in the assay on MEL-28 (three days of incubation), in the assay with HT-29 (three days of incubation) and in the assay on P-388 (three days of incubation) was 1.11 nM in each case.

On to `CCCC(=O)Oc1cc2c(cc1OC)[C@@]1(CS[C@@H]3c4c(OC(C)=O)c(C)c5c(c4[C@H](COC1=O)N1C3[C@H]3c4c(cc(C)c(OC)c4O)C[C@@H]([C@@H]1C#N)N3C(=O)OC(C)(C)C)OCO5)NCC2` (stereo partly drawn) [Compound 192], for which the IC50 in the assay on DU-145, with A-549 (three days of incubation), in the assay with MEL-28 (three days of incubation), in the assay with HT-29 (three days of incubation) and in the assay with P-388 (three days of incubation) was 5.39 nM in each case.

Take `COc1cc2c(cc1OC(=O)/C=C/c1ccccc1)CCN[C@]21CS[C@@H]2c3c(OC(C)=O)c(C)c4c(c3[C@H](COC1=O)N1C2[C@H]2c3c(cc(C)c(OC)c3O)C[C@@H]([C@@H]1C#N)N2C(=O)OC(C)(C)C)OCO4` (stereo partly drawn) [Compound 194]: the IC50 in the assay with DU-145 (three days of incubation), with A-549 (three days of incubation), with MEL-28 (three days of incubation), in the assay with HT-29 (three days of incubation) and in the assay on P-388 (three days of incubation) was 50.7 nM throughout.

Turning to `CCCCCCCC(=O)Oc1cc2c(cc1OC)[C@@]1(CS[C@@H]3c4c(OC(C)=O)c(C)c5c(c4[C@H](COC1=O)N1C3[C@H]3c4c(cc(C)c(OC)c4O)C[C@@H]([C@@H]1C#N)N3C(=O)OC(C)(C)C)OCO5)NCC2` (stereo partly drawn) [Compound 195], the IC50 in the assay on DU-145 (three days of incubation), in the assay on A-549 (three days of incubation), with MEL-28 (three days of incubation), in the assay on HT-29 (three days of incubation) and with P-388 (three days of incubation) was 10.2 nM in each case.

With `CCCCCCCC(=O)Oc1cc2c(cc1OC)[C@@]1(CS[C@@H]3c4c(OC(C)=O)c(C)c5c(c4[C@H](COC1=O)N1C3[C@H]3c4c(cc(C)c(OC)c4OC(=O)CCCCCCC)C[C@@H]([C@@H]1C#N)N3C(=O)OC(C)(C)C)OCO5)NCC2` (stereo partly drawn) [Compound 196], the IC50 in the assay with DU-145 (three days of incubation), in the assay with A-549 (three days of incubation), in the assay on MEL-28 (three days of incubation), in the assay on HT-29 (three days of incubation) and in the assay with P-388 (three days of incubation) was 9020 nM throughout.

`CCCCCCCCCCCCCCCC(=O)Oc1cc2c(cc1OC)[C@@]1(CS[C@@H]3c4c(OC(C)=O)c(C)c5c(c4[C@H](COC1=O)N1C3[C@H]3c4c(cc(C)c(OC)c4O)C[C@@H]([C@@H]1C#N)N3C(=O)OC(C)(C)C)OCO5)NCC2` (stereo partly drawn) [Compound 197]: the IC50 in the assay on DU-145 (three days of incubation), with A-549 (three days of incubation), with MEL-28 (three days of incubation), with HT-29 (three days of incubation) and with P-388 (three days of incubation) was 9130 nM in each case.

For `CCCCCCCCCCCCCCCC(=O)Oc1cc2c(cc1OC)[C@@]1(CS[C@@H]3c4c(OC(C)=O)c(C)c5c(c4[C@H](COC1=O)N1C3[C@H]3c4c(cc(C)c(OC)c4OC(=O)CCCCCCCCCCCCCCC)C[C@@H]([C@@H]1C#N)N3C(=O)OC(C)(C)C)OCO5)NCC2` (stereo partly drawn) [Compound 198], the IC50 in the assay on DU-145 (three days of incubation), in the assay with A-549 (three days of incubation), in the assay with MEL-28 (three days of incubation), in the assay with HT-29 (three days of incubation) and in the assay with P-388 (three days of incubation) was 7500 nM in each case.

For `COc1cc2c(cc1OC(C)=O)CCN[C@]21CS[C@@H]2c3c(OC(C)=O)c(C)c4c(c3[C@H](COC1=O)N1C2[C@@H]2N[C@@H](Cc3cc(C)c(OC)c(O)c32)[C@@H]1C#N)OCO4` (stereo partly drawn) [Compound 202], the IC50 – broadly, the concentration that inhibits the measured activity by half – is 0.0625 nM in the assay with DU-145 (three days of incubation); 0.125 nM in the assay on A-549 (three days of incubation); 0.0625 nM with MEL-28 (three days of incubation); 0.125 nM in the assay on HT-29 (three days of incubation); 0.125 nM in the assay on P-388 (three days of incubation).

Take `CCCC(=O)Oc1cc2c(cc1OC)[C@@]1(CS[C@@H]3c4c(OC(C)=O)c(C)c5c(c4[C@H](COC1=O)N1C3[C@@H]3N[C@@H](Cc4cc(C)c(OC)c(O)c43)[C@@H]1C#N)OCO5)NCC2` (stereo partly drawn) [Compound 203]: the half-inhibitory concentration (IC50) in the assay on DU-145 (three days of incubation), in the assay with A-549 (three days of incubation), in the assay on MEL-28 (three days of incubation), with HT-29 (three days of incubation) and with P-388 (three days of incubation) was 0.121 nM in each case.

`COc1cc2c(cc1OC(=O)/C=C/c1ccccc1)CCN[C@]21CS[C@@H]2c3c(OC(C)=O)c(C)c4c(c3[C@H](COC1=O)N1C2[C@@H]2N[C@@H](Cc3cc(C)c(OC)c(O)c32)[C@@H]1C#N)OCO4` (stereo partly drawn) [Compound 204]: the IC50 in the assay on DU-145 (three days of incubation), in the assay on A-549 (three days of incubation), with MEL-28 (three days of incubation), with HT-29 (three days of incubation) and in the assay with P-388 (three days of incubation) was 0.113 nM in each case.

For the compound `CCCCCCCC(=O)Oc1cc2c(cc1OC)[C@@]1(CS[C@@H]3c4c(OC(C)=O)c(C)c5c(c4[C@H](COC1=O)N1C3[C@@H]3N[C@@H](Cc4cc(C)c(OC)c(O)c43)[C@@H]1C#N)OCO5)NCC2` (stereo partly drawn) [Compound 205], the IC50 in the assay on DU-145 (three days of incubation), with A-549 (three days of incubation), in the assay with MEL-28 (three days of incubation), in the assay with HT-29 (three days of incubation) and in the assay with P-388 (three days of incubation) was 0.113 nM each time.

For `CCCCCCCC(=O)Oc1cc2c(cc1OC)[C@@]1(CS[C@@H]3c4c(OC(C)=O)c(C)c5c(c4[C@H](COC1=O)N1C3[C@@H]3N[C@@H](Cc4cc(C)c(OC)c(OC(=O)CCCCCCC)c43)[C@@H]1C#N)OCO5)NCC2` (stereo partly drawn) [Compound 206], the concentration for half-maximal inhibition (IC50) in the assay on DU-145 (three days of incubation), in the assay with A-549 (three days of incubation), with MEL-28 (three days of incubation), in the assay on HT-29 (three days of incubation) and in the assay with P-388 (three days of incubation) was 49.6 nM throughout.

As to `CCCCCCCCCCCCCCCC(=O)Oc1cc2c(cc1OC)[C@@]1(CS[C@@H]3c4c(OC(C)=O)c(C)c5c(c4[C@H](COC1=O)N1C3[C@@H]3N[C@@H](Cc4cc(C)c(OC)c(O)c43)[C@@H]1C#N)OCO5)NCC2` (stereo partly drawn) [Compound 207], the IC50 in the assay with DU-145 (three days of incubation), in the assay on A-549 (three days of incubation), in the assay on MEL-28 (three days of incubation), in the assay with HT-29 (three days of incubation) and in the assay on P-388 (three days of incubation) was 5.03 nM in each case.
